Source: article PMC8463443 (Acta Pharmaceutica Sinica. B, 2021)
Where no end group is shown, it is not given here.

Columns and labels:
[1] = test system: monkey kidney cell line Vero E6; experiment: Cell viability, Vero E6; type: cell-based; settings: monkey kidney cell line Vero E6 (Fig. S6)
[2] = Water solubility of peptide; type: physicochemical; settings: in words, method not given

KLTFLEYWAQLMQK [M3-2K]
effect on viability of Vero E6 [1]: neither PMI-2K nor M3-2K had any effect on the viability | water solubility [2]: improved peptide solubility
